Data: ChEMBL document CHEMBL3745631, “Discovery of highly potent and selective Bruton's tyrosine kinase inhibitors: Pyridazinone analogs with improved metabolic stability” (Bioorg Med Chem Lett, 2016)

Key:
Hepatocyte = assay: Intrinsic clearance in human hepatocytes at 1 uM by LC-MS/MS analysis; assay type: ADME, cell-based
Monocyte = assay: Inhibition of IC-induced IL-1beta release in human monocytes
Cynomolgus monkey = assay: Clearance in cynomolgus monkey at 1 mg/kg, iv by LC-MS/MS analysis; assay type: ADME, organism-based, Macaca fascicularis; settings: in vivo
[1] = Oral bioavailability in rat at 5 mg/kg by LC-MS/MS analysis; assay type: ADME, organism-based; settings: in vivo
[2] = biological target: Tyrosine-protein kinase Lck (Homo sapiens) (UniProt P06239); assay: Inhibition of LCK (unknown origin) at 1 uM
[3] = tested on: RAF proto-oncogene serine/threonine-protein kinase (Homo sapiens), P04049 [Y340D,Y341D]; assay: Inhibition of RAF1 Y340D, Y341D mutant (unknown origin) at 1 uM
[4] = biological target: Fibroblast growth factor receptor 3 (Homo sapiens) (UniProt P22607); assay: Inhibition of FGFR3 (unknown origin) at 1 uM
Chain of Fibroblast growth factor receptor 3 (Homo sapiens) (P22607 23-806 limits assumed): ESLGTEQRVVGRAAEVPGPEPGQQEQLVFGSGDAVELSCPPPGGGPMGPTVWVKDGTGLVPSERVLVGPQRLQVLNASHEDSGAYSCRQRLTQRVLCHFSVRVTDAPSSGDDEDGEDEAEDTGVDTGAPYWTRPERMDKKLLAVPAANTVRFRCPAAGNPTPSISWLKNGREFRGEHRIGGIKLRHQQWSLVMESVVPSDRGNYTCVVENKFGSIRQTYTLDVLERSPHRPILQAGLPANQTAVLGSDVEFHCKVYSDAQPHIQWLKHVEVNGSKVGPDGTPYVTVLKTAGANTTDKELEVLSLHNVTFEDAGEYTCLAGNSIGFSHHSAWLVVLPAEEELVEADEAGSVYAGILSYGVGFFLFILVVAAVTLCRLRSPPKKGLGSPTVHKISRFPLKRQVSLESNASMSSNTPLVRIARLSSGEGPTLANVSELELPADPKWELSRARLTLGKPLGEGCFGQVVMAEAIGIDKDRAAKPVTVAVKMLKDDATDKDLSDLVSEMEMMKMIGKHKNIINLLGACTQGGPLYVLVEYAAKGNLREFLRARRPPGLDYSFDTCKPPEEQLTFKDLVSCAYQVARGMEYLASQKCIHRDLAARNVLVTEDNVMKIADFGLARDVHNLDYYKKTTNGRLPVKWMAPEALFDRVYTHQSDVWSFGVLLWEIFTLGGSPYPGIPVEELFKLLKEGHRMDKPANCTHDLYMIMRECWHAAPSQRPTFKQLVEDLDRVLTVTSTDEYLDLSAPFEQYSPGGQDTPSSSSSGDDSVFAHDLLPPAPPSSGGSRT

[5] = biological target: Protein kinase C theta type (Homo sapiens) (UniProt Q04759); assay: Inhibition of PKCtheta (unknown origin) at 1 uM
[6] = biological target: 3-phosphoinositide-dependent protein kinase 1 (Homo sapiens) (UniProt O15530); assay: Inhibition of PDK1 (unknown origin) at 1 uM by direct binding assay
[7] = biological target: Protein kinase C eta type (Homo sapiens) (UniProt P24723); assay: Inhibition of PKCeta (unknown origin) at 1 uM
[8] = biological target: Dual specificity tyrosine-phosphorylation-regulated kinase 3 (Homo sapiens) (UniProt O43781); assay: Inhibition of DYRK3 (unknown origin) at 1 uM
[9] = biological target: Phosphorylase b kinase gamma catalytic chain, liver/testis isoform (Homo sapiens) (UniProt P15735); assay: Inhibition of PhK gamma2 (unknown origin) at 1 uM
[10] = biological target: Tyrosine-protein kinase Mer (Homo sapiens) (UniProt Q12866); assay: Inhibition of Mer (unknown origin) at 1 uM
[11] = biological target: Dual specificity protein kinase CLK3 (Homo sapiens) (UniProt P49761); assay: Inhibition of CLK3 (unknown origin) at 1 uM
[12] = biological target: Phosphatidylinositol 4,5-bisphosphate 3-kinase catalytic subunit gamma isoform (Homo sapiens) (UniProt P48736); assay: Inhibition of PI3K-G (unknown origin) at 1 uM
Chain of Phosphatidylinositol 4,5-bisphosphate 3-kinase catalytic subunit gamma isoform (Homo sapiens) (P48736 whole entry, looked up, canonical isoform): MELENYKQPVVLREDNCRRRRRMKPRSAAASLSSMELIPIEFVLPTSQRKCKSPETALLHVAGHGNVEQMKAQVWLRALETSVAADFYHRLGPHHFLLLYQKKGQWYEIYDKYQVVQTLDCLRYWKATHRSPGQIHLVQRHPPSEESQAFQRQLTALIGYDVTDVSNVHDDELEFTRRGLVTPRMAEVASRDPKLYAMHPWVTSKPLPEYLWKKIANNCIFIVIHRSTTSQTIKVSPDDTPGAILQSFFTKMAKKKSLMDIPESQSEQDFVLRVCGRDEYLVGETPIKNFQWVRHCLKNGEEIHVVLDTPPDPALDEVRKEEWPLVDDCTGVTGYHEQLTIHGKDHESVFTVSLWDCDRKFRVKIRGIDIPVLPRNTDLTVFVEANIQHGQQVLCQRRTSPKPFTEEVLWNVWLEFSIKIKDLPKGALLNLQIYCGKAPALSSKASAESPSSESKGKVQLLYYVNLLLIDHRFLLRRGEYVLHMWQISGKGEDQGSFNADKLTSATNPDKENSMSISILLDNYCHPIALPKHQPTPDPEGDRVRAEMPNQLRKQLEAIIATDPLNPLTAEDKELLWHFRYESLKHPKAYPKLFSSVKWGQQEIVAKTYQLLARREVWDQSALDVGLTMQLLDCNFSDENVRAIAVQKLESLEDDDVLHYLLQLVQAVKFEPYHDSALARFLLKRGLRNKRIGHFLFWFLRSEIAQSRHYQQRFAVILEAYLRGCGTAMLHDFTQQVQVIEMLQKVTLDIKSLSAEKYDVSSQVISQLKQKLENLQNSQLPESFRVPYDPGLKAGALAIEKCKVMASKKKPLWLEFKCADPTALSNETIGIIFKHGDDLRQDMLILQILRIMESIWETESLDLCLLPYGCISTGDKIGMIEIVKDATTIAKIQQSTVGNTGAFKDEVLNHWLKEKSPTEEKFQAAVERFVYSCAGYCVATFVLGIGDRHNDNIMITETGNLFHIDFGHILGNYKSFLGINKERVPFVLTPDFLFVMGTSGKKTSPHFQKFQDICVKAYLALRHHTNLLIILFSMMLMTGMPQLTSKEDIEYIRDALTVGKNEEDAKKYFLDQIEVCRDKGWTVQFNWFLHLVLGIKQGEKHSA

[13] = biological target: Inhibitor of nuclear factor kappa-B kinase subunit beta (Homo sapiens) (UniProt O14920); assay: Inhibition of IKKbeta (unknown origin) at 1 uM
[14] = biological target: Interleukin-1 receptor-associated kinase 4 (Homo sapiens) (UniProt Q9NWZ3); assay: Inhibition of IRAK4 (unknown origin) at 1 uM
[15] = biological target: MAP kinase-activated protein kinase 5 (Homo sapiens) (UniProt Q8IW41); assay: Inhibition of PRAK (unknown origin) at 1 uM
[16] = biological target: CDK8/Cyclin C (Homo sapiens) (UniProt P49336+P24863); assay: Inhibition of CDK8/cyclinC (unknown origin) at 1 uM; assay type: protein-complex assay
[17] = biological target: Serine/threonine-protein kinase B-raf (Homo sapiens) (UniProt P15056); assay: Inhibition of B-Raf (unknown origin) at 1 uM
[18] = biological target: MAP kinase-interacting serine/threonine-protein kinase 2 (Homo sapiens) (UniProt Q9HBH9); assay: Inhibition of MKNK2 (unknown origin) at 1 uM
[19] = biological target: RAC-beta serine/threonine-protein kinase (Homo sapiens) (UniProt P31751); assay: Inhibition of AKT2 (unknown origin) at 1 uM
[20] = biological target: Receptor-interacting serine/threonine-protein kinase 2 (Homo sapiens) (UniProt O43353); assay: Inhibition of RIPK2 (unknown origin) at 1 uM
[21] = biological target: Myosin light chain kinase, smooth muscle (Homo sapiens) (UniProt Q15746); assay: Inhibition of MYLK(smMLCK) (unknown origin) at 1 uM
[22] = biological target: CDK2/Cyclin A2 (Homo sapiens) (UniProt P24941+P20248); assay: Inhibition of CDK2/cyclinA (unknown origin) at 1 uM; assay type: protein-complex assay
[23] = biological target: Dual specificity mitogen-activated protein kinase kinase 3 (Homo sapiens) (UniProt P46734); assay: Inhibition of MEK3 (unknown origin) at 1 uM
[24] = biological target: Serine/threonine-protein kinase Sgk3 (Homo sapiens) (UniProt Q96BR1); assay: Inhibition of SGK3 (unknown origin) at 1 uM
[25] = biological target: Wee1-like protein kinase (Homo sapiens) (UniProt P30291); assay: Inhibition of WEE1 (unknown origin) at 1 uM
[26] = biological target: Death-associated protein kinase 3 (Homo sapiens) (UniProt O43293); assay: Inhibition of ZIPK (unknown origin) at 1 uM
[27] = biological target: Interleukin-1 receptor-associated kinase 1 (Homo sapiens) (UniProt P51617); assay: Inhibition of IRAK1 (unknown origin) at 1 uM
[28] = biological target: Serine/threonine-protein kinase PAK 3 (Homo sapiens) (UniProt O75914); assay: Inhibition of PAK3 (unknown origin) at 1 uM
Chain of Serine/threonine-protein kinase PAK 3 (Homo sapiens) (O75914 whole entry, looked up): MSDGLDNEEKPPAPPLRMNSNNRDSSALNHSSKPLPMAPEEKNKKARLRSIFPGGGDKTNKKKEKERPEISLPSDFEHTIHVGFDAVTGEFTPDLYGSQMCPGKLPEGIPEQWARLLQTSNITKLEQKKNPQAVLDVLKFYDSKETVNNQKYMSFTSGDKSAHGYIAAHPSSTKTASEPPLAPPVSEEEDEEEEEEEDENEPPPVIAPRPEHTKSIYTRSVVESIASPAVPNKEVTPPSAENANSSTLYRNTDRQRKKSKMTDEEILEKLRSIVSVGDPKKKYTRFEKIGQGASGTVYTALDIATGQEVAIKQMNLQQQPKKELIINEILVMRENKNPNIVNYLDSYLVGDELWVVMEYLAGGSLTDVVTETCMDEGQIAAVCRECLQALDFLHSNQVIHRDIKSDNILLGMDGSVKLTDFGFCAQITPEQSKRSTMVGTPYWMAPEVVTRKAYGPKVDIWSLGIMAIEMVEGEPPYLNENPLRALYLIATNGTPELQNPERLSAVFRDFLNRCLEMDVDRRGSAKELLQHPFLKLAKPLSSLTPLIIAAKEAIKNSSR

[29] = biological target: TGF-beta-activated kinase 1 and MAP3K7-binding protein 1 (Homo sapiens) (UniProt Q15750); assay: Inhibition of TAK1-TAB1 (unknown origin) at 1 uM
[30] = biological target: Receptor-type tyrosine-protein kinase FLT3 (Homo sapiens) (UniProt P36888); assay: Inhibition of Flt3 (unknown origin) at 1 uM
[31] = biological target: Tyrosine-protein kinase ABL1 (Homo sapiens) (UniProt P00519); assay: Inhibition of Abl (unknown origin) at 1 uM
[32] = biological target: Serine/threonine-protein kinase 24 (Homo sapiens) (UniProt Q9Y6E0); assay: Inhibition of MST3 (unknown origin) at 1 uM
[33] = biological target: Serine/threonine-protein kinase 26 (Homo sapiens) (UniProt Q9P289); assay: Inhibition of MST4 (unknown origin) at 1 uM
[34] = biological target: Mitogen-activated protein kinase 13 (Homo sapiens) (UniProt O15264); assay: Inhibition of p38 delta (unknown origin) at 1 uM
Chain of Mitogen-activated protein kinase 13 (Homo sapiens) (O15264 whole entry): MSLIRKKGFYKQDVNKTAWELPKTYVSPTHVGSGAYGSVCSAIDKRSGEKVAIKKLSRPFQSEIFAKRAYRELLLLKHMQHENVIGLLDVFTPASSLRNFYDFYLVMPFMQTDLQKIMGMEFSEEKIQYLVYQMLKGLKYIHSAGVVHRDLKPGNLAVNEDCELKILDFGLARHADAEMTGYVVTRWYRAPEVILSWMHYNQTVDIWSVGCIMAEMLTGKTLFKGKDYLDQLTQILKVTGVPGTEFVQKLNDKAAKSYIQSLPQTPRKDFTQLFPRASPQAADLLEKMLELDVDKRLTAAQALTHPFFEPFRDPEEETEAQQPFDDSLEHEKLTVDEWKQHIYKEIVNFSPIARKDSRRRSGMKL

[35] = biological target: Dual specificity protein kinase TTK (Homo sapiens) (UniProt P33981); assay: Inhibition of TTK (unknown origin) at 1 uM
Chain of Dual specificity protein kinase TTK (Homo sapiens) (P33981 whole entry): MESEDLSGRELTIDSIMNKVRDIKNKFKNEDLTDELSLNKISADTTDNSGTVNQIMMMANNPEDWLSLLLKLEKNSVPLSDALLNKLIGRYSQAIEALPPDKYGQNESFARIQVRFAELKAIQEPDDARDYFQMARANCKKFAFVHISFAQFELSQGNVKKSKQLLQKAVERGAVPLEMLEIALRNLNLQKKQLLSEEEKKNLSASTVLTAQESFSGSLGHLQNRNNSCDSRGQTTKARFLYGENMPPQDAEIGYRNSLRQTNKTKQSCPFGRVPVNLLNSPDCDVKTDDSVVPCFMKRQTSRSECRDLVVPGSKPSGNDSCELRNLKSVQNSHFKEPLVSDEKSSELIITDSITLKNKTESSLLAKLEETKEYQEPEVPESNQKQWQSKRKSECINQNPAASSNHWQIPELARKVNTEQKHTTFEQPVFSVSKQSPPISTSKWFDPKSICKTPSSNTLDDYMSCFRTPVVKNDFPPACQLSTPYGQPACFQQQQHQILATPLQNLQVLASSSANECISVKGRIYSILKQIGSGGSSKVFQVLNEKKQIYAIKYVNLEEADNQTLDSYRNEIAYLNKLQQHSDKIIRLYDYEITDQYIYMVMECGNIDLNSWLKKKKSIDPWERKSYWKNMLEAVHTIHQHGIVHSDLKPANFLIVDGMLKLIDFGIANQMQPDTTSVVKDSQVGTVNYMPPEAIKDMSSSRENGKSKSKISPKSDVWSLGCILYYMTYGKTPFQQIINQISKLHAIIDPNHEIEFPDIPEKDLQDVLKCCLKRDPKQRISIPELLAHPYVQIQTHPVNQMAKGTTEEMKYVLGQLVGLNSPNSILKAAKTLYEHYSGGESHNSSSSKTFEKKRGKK

[36] = biological target: G protein-coupled receptor kinase 6 (Homo sapiens) (UniProt P43250); assay: Inhibition of GRK6 (unknown origin) at 1 uM
[37] = biological target: Non-receptor tyrosine-protein kinase TYK2 (Homo sapiens) (UniProt P29597); assay: Inhibition of TYK2 (unknown origin) at 1 uM
[38] = biological target: Casein kinase I isoform alpha (Homo sapiens) (UniProt P48729); assay: Inhibition of CK1 alpha1 (unknown origin) at 1 uM
Chain of Casein kinase I isoform alpha (Homo sapiens) (P48729 2-337 limits assumed): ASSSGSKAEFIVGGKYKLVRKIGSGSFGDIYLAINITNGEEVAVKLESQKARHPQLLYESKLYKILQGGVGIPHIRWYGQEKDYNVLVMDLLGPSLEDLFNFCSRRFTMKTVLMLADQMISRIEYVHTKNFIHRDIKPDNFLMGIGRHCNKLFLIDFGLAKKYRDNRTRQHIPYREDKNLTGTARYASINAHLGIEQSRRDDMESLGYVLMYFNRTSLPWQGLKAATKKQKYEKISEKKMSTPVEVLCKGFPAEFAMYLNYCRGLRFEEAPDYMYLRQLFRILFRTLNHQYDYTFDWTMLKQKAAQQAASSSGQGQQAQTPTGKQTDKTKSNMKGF

[39] = biological target: Serine/threonine-protein kinase MARK1 (Homo sapiens) (UniProt Q9P0L2); assay: Inhibition of MARK1 (unknown origin) at 1 uM
Chain of Serine/threonine-protein kinase MARK1 (Homo sapiens) (Q9P0L2 whole entry, looked up): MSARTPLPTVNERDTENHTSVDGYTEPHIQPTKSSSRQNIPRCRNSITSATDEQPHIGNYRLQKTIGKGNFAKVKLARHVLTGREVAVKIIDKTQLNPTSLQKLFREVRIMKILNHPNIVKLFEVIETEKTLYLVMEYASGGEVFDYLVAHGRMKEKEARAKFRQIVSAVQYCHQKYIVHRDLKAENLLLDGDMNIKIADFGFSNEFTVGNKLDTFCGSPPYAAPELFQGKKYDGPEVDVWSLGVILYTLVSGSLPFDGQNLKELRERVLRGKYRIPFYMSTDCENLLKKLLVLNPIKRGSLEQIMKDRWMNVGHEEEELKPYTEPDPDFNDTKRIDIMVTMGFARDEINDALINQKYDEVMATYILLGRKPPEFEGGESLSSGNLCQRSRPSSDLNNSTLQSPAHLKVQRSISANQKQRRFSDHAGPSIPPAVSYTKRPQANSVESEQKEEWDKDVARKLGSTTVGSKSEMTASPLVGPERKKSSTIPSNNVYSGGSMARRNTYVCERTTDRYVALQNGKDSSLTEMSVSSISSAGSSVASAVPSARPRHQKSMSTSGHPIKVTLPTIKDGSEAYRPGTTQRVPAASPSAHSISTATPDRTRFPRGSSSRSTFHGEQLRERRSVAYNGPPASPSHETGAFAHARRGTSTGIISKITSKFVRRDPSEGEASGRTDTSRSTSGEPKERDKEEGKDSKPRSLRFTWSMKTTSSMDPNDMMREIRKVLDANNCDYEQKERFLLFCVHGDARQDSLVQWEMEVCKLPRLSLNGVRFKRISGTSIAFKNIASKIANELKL

[40] = biological target: Tyrosine-protein kinase TXK (Homo sapiens) (UniProt P42681); assay: Inhibition of TXK (unknown origin) at 1 uM
[41] = biological target: Protein kinase C epsilon type (Homo sapiens) (UniProt Q02156); assay: Inhibition of PKCepsilon (unknown origin) at 1 uM

Cc1c(-c2cc(Nc3cc4n(n3)CCN(C)C4)c(=O)[nH]n2)ccc(F)c1NC(=O)c1cc2ccccc2s1
CLH (Hepatocyte): < 6 mL/min/kg
EC50 (Monocyte): 22 nM
clearance (Cynomolgus monkey): 4 mL/min/kg
bioavailability [1]: 26%
inhibition [2]: 39.3%
inhibition [3]: 5.5%
inhibition [4]: 1.8%
inhibition [5]: -6.9%
inhibition [6]: -8%
inhibition [7]: -8%
inhibition [8]: 3.3%
inhibition [9]: 1.8%
inhibition [10]: 3%
inhibition [11]: 2.9%
inhibition [12]: 2.5%
inhibition [13]: 2.2%
inhibition [14]: 2%
inhibition [15]: 2%
inhibition [16]: 1%
inhibition [17]: 0.6%
inhibition [18]: -0.2%
inhibition [19]: -0.3%
inhibition [20]: -0.4%
inhibition [21]: -0.8%
inhibition [22]: -0.9%
inhibition [23]: -1.1%
inhibition [24]: -1.3%
inhibition [25]: -1.8%
inhibition [26]: -2%
inhibition [27]: -2.2%
inhibition [28]: 14.6%
inhibition [29]: 13.7%
inhibition [30]: 11.6%
inhibition [31]: 11.3%
inhibition [32]: 9%
inhibition [33]: 8.6%
inhibition [34]: 8.6%
inhibition [35]: 7.2%
inhibition [36]: 4.7%
inhibition [37]: 4.3%
inhibition [38]: 4%
inhibition [39]: -4.7%
inhibition [40]: -4.7%
inhibition [41]: -6.8%
